In the supplement of paper PMC10331698:
± gives the standard deviation of the averaged measurements.

What was measured:
Assay in all cases: level (log10 ratio to DMSO vehicle control); higher = higher biomarker level / cell amount than vehicle control
[1] = compound: C=C(C)C(=O)OCCC(F)(F)C(F)(F)C(F)(F)C(F)(F)C(F)(F)C(F)(F)F [6:2 Fluorotelomer methacrylate]; details: in DMSO
Description: (§1)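 BioMAP Diversity Plus panel of 12 human primary cell co-culture systems (3C, 4H, LPS, SAg, BT, BF4T, BE3C, CASM3C, HDF3CGF, KF3CT, MyoF, Mphg). Compounds were added 1 h before stimulation and left for 24 h (MyoF 48 h; BT 72 h for soluble read-outs or 6 d for IgG). Biomarkers were read by ELISA, cytotoxicity by SRB, PBMC viability and proliferation by Alamar Blue. Each well value was divided by the mean of 8 DMSO control wells on the same plate and log10 transformed; duplicate blinded samples were tested at 4 concentrations.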

[2] = compound: C=CC(=O)OCC(F)(F)C(F)(F)C(F)(F)COC(=O)C=C [1H,1H,5H,5H-Perfluoro-1,5-pentanediol diacrylate]; details: 6700 nM; in DMSO
Description: as §1

[3] = compound: COC(=O)C(F)(F)C(F)(F)OC(F)(C(F)(F)F)C(F)(F)OC(F)=C(F)F [Methyl perfluoro(3-(1-ethenyloxypropan-2-yloxy)propanoate)]; details: in DMSO
Description: as §1

[4] = compound: FC(F)(F)C(F)(F)C(F)(F)C(F)(F)C(F)(F)C(F)(F)C(F)(F)I [1-Iodopentadecafluoroheptane]; details: in DMSO
Description: as §1

[5] = compound: FC(F)(F)C(F)(F)C(F)(F)C(F)(F)C(F)(F)C(F)(F)CC1CO1 [3-(Perfluorohexyl)-1,2-epoxypropane]; details: in DMSO
Description: as §1

[6] = compound: FC(F)(F)C(F)(F)C(F)(F)CC1CO1 [1H,1H-Heptafluorobutyl epoxide]; details: in DMSO
Description: as §1

Heptafluorobutyl iodide = compound: FC(F)(F)C(F)(F)C(F)(F)CI [Heptafluorobutyl iodide]; details: in DMSO
Description: as §1

[7] = compound: FC(F)(F)C(F)(F)CNCC(F)(F)C(F)(F)F [Bis(1H,1H-perfluoropropyl)amine]; details: in DMSO
Description: as §1

Octafluoroadipamide = compound: NC(=O)C(F)(F)C(F)(F)C(F)(F)C(F)(F)C(N)=O [Octafluoroadipamide]; details: in DMSO
Description: as §1

Nonafluoropentanamide = compound: NC(=O)C(F)(F)C(F)(F)C(F)(F)C(F)(F)F [Nonafluoropentanamide]; details: in DMSO
Description: as §1

[8] = compound: NC(=O)C(F)(F)C(F)(F)C(F)(F)C(F)F; details: in DMSO
Description: as §1

[9] = compound: NS(=O)(=O)C(F)(F)C(F)(F)C(F)(F)C(F)(F)C(F)(F)C(F)(F)F [Perfluorohexanesulfonamide]; details: in DMSO
Description: as §1

[10] = compound: O=C(O)C(F)(F)C(F)(F)C(F)(F)C(F)(F)C(F)(F)C(F)(F)C(F)(F)C(F)(F)C(F)(F)C(F)F [11-H-Perfluoroundecanoic acid]; details: in DMSO
Description: as §1

[11] = compound: O=C(O)C=CC(F)(C(F)(F)F)C(F)(F)F [3-(Perfluoroisopropyl)-2-propenoic acid]; details: in DMSO
Description: as §1

[12] = compound: O=S(=O)(Cl)C(F)(F)C(F)(F)C(F)(F)C(F)(F)C(F)(F)C(F)(F)C(F)(F)C(F)(F)F [Perfluoro-1-octanesulfonyl chloride]; details: in DMSO
Description: as §1

[13] = compound: O=S(=O)(F)C(F)(F)C(F)(F)C(F)(F)C(F)(F)C(F)(F)C(F)(F)C(F)(F)C(F)(F)F [Perfluorooctanesulfonyl fluoride]; details: in DMSO
Description: as §1

[14] = compound: O=S(=O)(O)C(F)(F)C(F)(F)C(F)(F)C(F)(F)C(F)(F)C(F)(F)C(F)(F)C(F)(F)C(F)(F)C(F)(F)F [Sodium perfluorodecanesulfonate]; details: in DMSO
Description: as §1

[15] = compound: O=S(=O)(O)CCC(F)(F)C(F)(F)C(F)(F)C(F)(F)C(F)(F)C(F)(F)F [6:2 Fluorotelomer sulfonic acid]; details: in DMSO
Description: as §1

Hexafluoroamylene glycol = compound: OCC(F)(F)C(F)(F)C(F)(F)CO [Hexafluoroamylene glycol]; details: in DMSO
Description: as §1

## LPS:CD62E/E-Selectin
[1]; 6700 nM
  level (log10): 0.0095 ± 0.018
[1]; 20000 nM
  level (log10): 0.003 ± 0.018
[1]; 60000 nM
  level (log10): 0.0335 ± 0.0064
[2]
  level (log10): -0.0265 ± 0.022
[3]; 6700 nM
  level (log10): -0.0165 ± 0.0035
[3]; 20000 nM
  level (log10): -0.0085 ± 0.00071
[4]; 6700 nM
  level (log10): -0.0155 ± 0.005
[4]; 20000 nM
  level (log10): -0.002 ± 0.0071
[5]; 6700 nM
  level (log10): -0.0055 ± 0.029
[5]; 20000 nM
  level (log10): 0 ± 0.0042
[5]; 60000 nM
  level (log10): 0.0165 ± 0.026
[6]; 6700 nM
  level (log10): 0.0105 ± 0.012
[6]; 20000 nM
  level (log10): -0.009 ± 0.016
[6]; 60000 nM
  level (log10): 0.0035 ± 0.036
Heptafluorobutyl iodide; 6700 nM
  level (log10): 0.005 ± 0.1
Heptafluorobutyl iodide; 20000 nM
  level (log10): -0.013 ± 0.0028
Heptafluorobutyl iodide; 60000 nM
  level (log10): 0.026 ± 0.068
[7]; 6700 nM
  level (log10): 0.0005 ± 0.032
[7]; 20000 nM
  level (log10): -0.012 ± 0.0057
[7]; 60000 nM
  level (log10): 0.0125 ± 0.00071
Octafluoroadipamide; 6700 nM
  level (log10): -0.007 ± 0.02
Octafluoroadipamide; 20000 nM
  level (log10): -0.0035 ± 0.016
Octafluoroadipamide; 60000 nM
  level (log10): 0.022 ± 0.0028
Nonafluoropentanamide; 6700 nM
  level (log10): 0.003 ± 0.0042
Nonafluoropentanamide; 20000 nM
  level (log10): 0.0175 ± 0.005
Nonafluoropentanamide; 60000 nM
  level (log10): 0.0215 ± 0.029
[8]; 6700 nM
  level (log10): -0.0115 ± 0.022
[8]; 20000 nM
  level (log10): -0.023 ± 0.0014
[8]; 60000 nM
  level (log10): -0.016 ± 0.016
[9]; 6700 nM
  level (log10): -0.002 ± 0.0099
[9]; 20000 nM
  level (log10): -0.0295 ± 0.012
[9]; 60000 nM
  level (log10): -0.0815 ± 0.011
[10]; 6700 nM
  level (log10): 0.0035 ± 0.019
[10]; 20000 nM
  level (log10): 0.0095 ± 0.025
[11]; 6700 nM
  level (log10): 0.0055 ± 0.015
[11]; 20000 nM
  level (log10): -0.013 ± 0.0042
[11]; 60000 nM
  level (log10): 0.0165 ± 0.0035
[12]; 6700 nM
  level (log10): -0.0105 ± 0.0078
[12]; 20000 nM
  level (log10): -0.0095 ± 0.00071
[12]; 60000 nM
  level (log10): 0.0585 ± 0.016
[13]; 6700 nM
  level (log10): 0.008 ± 0.0028
[13]; 20000 nM
  level (log10): 0.0015 ± 0.0064
[13]; 60000 nM
  level (log10): -0.002 ± 0.011
[14]; 1500 nM
  level (log10): -0.019 ± 0.02
[14]; 4400 nM
  level (log10): -0.045 ± 0.059
[14]; 13000 nM
  level (log10): -0.0425 ± 0.069
[14]; 40000 nM
  level (log10): -0.084 ± 0.076
[15]; 6700 nM
  level (log10): 0.034 ± 0.021
[15]; 20000 nM
  level (log10): 0.007 ± 0.014
[15]; 60000 nM
  level (log10): 0.027 ± 0.023
Hexafluoroamylene glycol; 6700 nM
  level (log10): 0.023 ± 0.024
Hexafluoroamylene glycol; 20000 nM
  level (log10): -0.007 ± 0.023
Hexafluoroamylene glycol; 60000 nM
  level (log10): -0.0125 ± 0.0064

## LPS:CD106/VCAM-1
[1]; 6700 nM
  level (log10): 0.0165 ± 0.0092
[1]; 20000 nM
  level (log10): -0.0025 ± 0.021
[1]; 60000 nM
  level (log10): 0.0055 ± 0.018
[2]
  level (log10): -0.118 ± 0.071
[3]; 6700 nM
  level (log10): -0.066 ± 0.013
[3]; 20000 nM
  level (log10): -0.0805 ± 0.0064
[4]; 6700 nM
  level (log10): 0.0045 ± 0.016
[4]; 20000 nM
  level (log10): -0.005 ± 0.0071
[5]; 6700 nM
  level (log10): -0.002 ± 0.011
[5]; 20000 nM
  level (log10): -0.0235 ± 0.015
[5]; 60000 nM
  level (log10): -0.022 ± 0.017
[6]; 6700 nM
  level (log10): 0.01 ± 0.017
[6]; 20000 nM
  level (log10): 0.0125 ± 0.0064
[6]; 60000 nM
  level (log10): 0.002 ± 0.0071
Heptafluorobutyl iodide; 6700 nM
  level (log10): -0.0355 ± 0.0092
Heptafluorobutyl iodide; 20000 nM
  level (log10): -0.001 ± 0.018
Heptafluorobutyl iodide; 60000 nM
  level (log10): -0.0485 ± 0.054
[7]; 6700 nM
  level (log10): -0.005 ± 0.0057
[7]; 20000 nM
  level (log10): 0.001 ± 0.021
[7]; 60000 nM
  level (log10): 0.0065 ± 0.0064
Octafluoroadipamide; 6700 nM
  level (log10): -0.022 ± 0.047
Octafluoroadipamide; 20000 nM
  level (log10): -0.0065 ± 0.0092
Octafluoroadipamide; 60000 nM
  level (log10): 0.008 ± 0.021
Nonafluoropentanamide; 6700 nM
  level (log10): -0.0075 ± 0.028
Nonafluoropentanamide; 20000 nM
  level (log10): -0.0135 ± 0.005
Nonafluoropentanamide; 60000 nM
  level (log10): 0.0035 ± 0.011
[8]; 6700 nM
  level (log10): -0.0055 ± 0.025
[8]; 20000 nM
  level (log10): -0.023 ± 0.041
[8]; 60000 nM
  level (log10): -0.015 ± 0.025
[9]; 6700 nM
  level (log10): -0.029 ± 0.047
[9]; 20000 nM
  level (log10): -0.0315 ± 0.049
[9]; 60000 nM
  level (log10): -0.097 ± 0.016
[10]; 6700 nM
  level (log10): 0.0025 ± 0.019
[10]; 20000 nM
  level (log10): -0.002 ± 0.02
[11]; 6700 nM
  level (log10): 0.003 ± 0.018
[11]; 20000 nM
  level (log10): -0.023 ± 0.013
[11]; 60000 nM
  level (log10): -0.018 ± 0.021
[12]; 6700 nM
  level (log10): -0.018 ± 0.0071
[12]; 20000 nM
  level (log10): -0.0065 ± 0.0092
[12]; 60000 nM
  level (log10): -0.022 ± 0.02
[13]; 6700 nM
  level (log10): 0.0025 ± 0.011
[13]; 20000 nM
  level (log10): -0.0125 ± 0.00071
[13]; 60000 nM
  level (log10): 0.007 ± 0.0085
[14]; 1500 nM
  level (log10): -0.0045 ± 0.029
[14]; 4400 nM
  level (log10): 0.0035 ± 0.0078
[14]; 13000 nM
  level (log10): -0.0265 ± 0.035
[14]; 40000 nM
  level (log10): -0.076 ± 0.0028
[15]; 6700 nM
  level (log10): -0.0055 ± 0.067
[15]; 20000 nM
  level (log10): -0.0005 ± 0.074
[15]; 60000 nM
  level (log10): 0.0115 ± 0.042
Hexafluoroamylene glycol; 6700 nM
  level (log10): -0.0215 ± 0.054
Hexafluoroamylene glycol; 20000 nM
  level (log10): -0.03 ± 0.064
Hexafluoroamylene glycol; 60000 nM
  level (log10): -0.0055 ± 0.059
